Assay results as given in patent US20240067632A1, “WEE1 Degrading Compounds and Uses Thereof” (Bristol-Myers Squibb Company, priority 2022, published 2024).
Read-outs that look alike come from different tables or passages of the source.

Assays:
WEE1 = target: T1, WEE1 (Homo sapiens, UniProt P30291+Q96SW2); assay: WEE1-ePL degradation assay (LentiX-WEE1-ePL-GSPT1-ND cells, InCELL Hunter luminescence, 4 h); format: cell-based; conditions: 293T-LentiX WEE1-ePL cells; for DC50: read-out: 293T-LentiX WEE1-ePL Degradation 4 hr (EC50)
T1 construct: C-terminal ePL-tagged (DiscoverX, Fremont, CA) full-length WEE1 expression construct; expressed in transfected cells; host or cells: LentiX-HEK293T (Invitrogen), lentiviral transduction; co-expressing GSPT1-GN (G576N, lacking the first 158 amino acids)
Summary of the method: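 Degradation EC50 was fitted by a four-parameter logistic model, with the upper limit taken from DMSO wells. Luminescence was read with InCELL Hunter reagent after 30 min at room temperature, following a 4 h, 37° C exposure of 2500 cells/well. Cells were LentiX-HEK293T carrying ePL-tagged full-length WEE1, dosed in 10 points (3-fold) from 1 or 10 uM.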

MKN45 cells = assay: MKN45 cell proliferation assay (Cell-Titer-Glo, 120 h); format: cell-based; conditions: for EC50: Cell-Titer-Glo, read-out: MKN45 Cell Prolif. 120 hr (EC50); for MKN45 Cell Prolif. 120 hr (Ymin-Obs): minimal percent of DMSO control observed in the concentrations tested
Summary of the method: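 Cells seeded at 400/well onto pre-printed 10-point half-log dilutions (top 1 or 10 uM, 0.1% DMSO final), in triplicate, and grown 120 h at 37 C. Viability by Cell-Titer-Glo luminescence, blank-subtracted and normalised to DMSO; EC50 from four-parameter logistic fit, with observed minimal % of control recorded as Ymin-obs.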

[1] = lower limit of the fit (Ymin=0 luciferase inhibitor, Ymax DMSO control)
[2] = lower limit of the fit (0 = luciferase inhibitor, Ymax = DMSO control)
[3] = Homo sapiens, MKN-45, 120 h, growth inhibition

Row | 293T-LentiX WEE1-ePL Degradation 4 hr (Ymin) (WEE1; [1]) | DC50 (WEE1) [nM] | EC50 (MKN45 cells; Homo sapiens, MKN-45, 120 h) [nM] | 293T-LentiX WEE1-ePL Degradation 4 hr (Ymin) (WEE1; [2]) | EC50 (MKN45 cells; [3]) [nM] | EC50 (MKN45 cells; growth inhibition) [nM] | SMILES | MKN45 Cell Prolif. 120 hr (Ymin-Obs) (MKN45 cells)
1 | 25.61 | 5.4 | 1.64 | – | – | – | COC[C@@H]1CN(Cc2ccc3nc(N4CCOCC4)ncc3c2)C[C@H]1Oc1ccc2c(c1)CN([C@H]1CCC(=O)NC1=O)C2=O [(3S)-3-(5-{[(3S,4S)-4-(methoxymethyl)-1-{[2-(morpholin-4-yl)quinazolin-6-yl]methyl}pyrrolidin-3-yl]oxy}-1-oxo-2,3-dihydro-1H-isoindol-2-yl)piperidine-2,6-dione] | 8.574
2 | 23.11 | 17.6 | 4.9 | – | – | – | COC[C@@H]1CN(Cc2ccc3nc(C4CCOCC4)ncc3c2)C[C@H]1Oc1ccc2c(c1)CN([C@H]1CCC(=O)NC1=O)C2=O [(3S)-3-(5-{[(3S,4S)-4-(methoxymethyl)-1-{[2-(oxan-4-yl)quinazolin-6-yl]methyl}pyrrolidin-3-yl]oxy}-1-oxo-2,3-dihydro-1H-isoindol-2-yl)piperidine-2,6-dione] | 8.813
3 | 40.43 | 4.84 | 30.8 | – | – | – | C[C@@H]1c2cc(O[C@H]3CCN(Cc4ccc5nc(N6CCOCC6)ncc5c4)C3)ccc2C(=O)N1[C@H]1CCC(=O)NC1=O [(3S)-3-[(3R)-3-methyl-5-{[(3S)-1-{[2-(morpholin-4-yl)quinazolin-6-yl]methyl}pyrrolidin-3-yl]oxy}-1-oxo-2,3-dihydro-1H-isoindol-2-yl]piperidine-2,6-dione] | 36.11
4 | 42.32 | 2.67 | 17.8 | – | – | – | C[C@@H]1c2cc(O[C@H]3CCN(Cc4ccc5nc(C6CCOCC6)ccc5c4)C3)ccc2C(=O)N1[C@H]1CCC(=O)NC1=O [(3S)-3-[(3R)-3-methyl-5-{[(3S)-1-{[2-(oxan-4-yl)quinolin-6-yl]methyl}pyrrolidin-3-yl]oxy}-1-oxo-2,3-dihydro-1H-isoindol-2-yl]piperidine-2,6-dione] | 20.63
5 | 49.25 | 212 | 374 | – | – | – | C[C@H]1c2cc(O[C@H]3CCN(Cc4ccc5nc(C6CCOCC6)ccc5c4)C3)ccc2C(=O)N1[C@H]1CCC(=O)NC1=O [(3S)-3-[(3S)-3-methyl-5-{[(3S)-1-{[2-(oxan-4-yl)quinolin-6-yl]methyl}pyrrolidin-3-yl]oxy}-1-oxo-2,3-dihydro-1H-isoindol-2-yl]piperidine-2,6-dione] | 86.82
6 | – | 5.04 | – | 32.5 | 3.35 | – | CN(C(=O)C1CCOCC1)c1ccc2cc(CN3CC[C@H](Oc4ccc5c(c4)CN(C4CCC(=O)NC4=O)C5=O)C3)ccc2n1 (stereo partly drawn) [N-(6-{[(3S)-3-{[2-(2,6-dioxopiperidin-3-yl)-1-oxo-2,3-dihydro-1H-isoindol-5-yl]oxy}pyrrolidin-1-yl]methyl}quinolin-2-yl)-N-methyloxane-4-carboxamide] | 6.6
7 | – | 1.78 | – | 29 | 2.03 | – | O=C1CCC(N2Cc3cc(O[C@H]4CCN(Cc5ccc6nc(NC(=O)C7CCOCC7)ccc6c5)C4)ccc3C2=O)C(=O)N1 (stereo partly drawn) [N-(6-{[(3S)-3-{[2-(2,6-dioxopiperidin-3-yl)-1-oxo-2,3-dihydro-1H-isoindol-5-yl]oxy}pyrrolidin-1-yl]methyl}quinolin-2-yl)oxane-4-carboxamide] | 5.73
8 | – | 2.09 | – | 28.27 | 2.67 | – | CO[C@H]1C[C@@H](c2ccc3cc(CN4CC[C@H](Oc5ccc6c(c5)CN(C5CCC(=O)NC5=O)C6=O)C4)ccc3n2)C1 (stereo partly drawn) [drawing 577, 3-(1-oxo-5-{[(3S)-1-({2-[(1s,3s)-3-methoxycyclobutyl]quinolin-6-yl}methyl)pyrrolidin-3-yl]oxy}-2,3-dihydro-1H-isoindol-2-yl)piperidine-2,6-dione] | 7.76
9 | – | 3.61 | – | 27.12 | 3.3 | – | CO[C@H]1C[C@H](c2ccc3cc(CN4CC[C@H](Oc5ccc6c(c5)CN(C5CCC(=O)NC5=O)C6=O)C4)ccc3n2)C1 (stereo partly drawn) [drawing 578, 3-(1-oxo-5-{[(3S)-1-({2-[(1r,3r)-3-methoxycyclobutyl]quinolin-6-yl}methyl)pyrrolidin-3-yl]oxy}-2,3-dihydro-1H-isoindol-2-yl)piperidine-2,6-dione] | 7.412
10 | – | 12.8 | – | 21.76 | – | 4.89 | CO[C@H]1C[C@H](c2ccc3cc(CN4CC[C@H](Oc5ccc6c(c5)CN(C5CCC(=O)NC5=O)C6=O)C4)ccc3n2)C1 (stereo partly drawn) [drawing 579, 3-(1-oxo-5-{[(3S)-1-({2-[(1r,3r)-3-methoxycyclobutyl]quinolin-6-yl}methyl)pyrrolidin-3-yl]oxy}-2,3-dihydro-1H-isoindol-2-yl)piperidine-2,6-dione] | 8.615
11 | – | 5.35 | – | 23.8 | – | 2.41 | CO[C@H]1C[C@@H](c2ccc3cc(CN4CC[C@H](Oc5ccc6c(c5)CN(C5CCC(=O)NC5=O)C6=O)C4)ccc3n2)C1 (stereo partly drawn) [drawing 581, 3-(1-oxo-5-{[(3S)-1-({2-[(1s,3s)-3-methoxycyclobutyl]quinolin-6-yl}methyl)pyrrolidin-3-yl]oxy}-2,3-dihydro-1H-isoindol-2-yl)piperidine-2,6-dione] | 7.75
